Source: PMC8865919, “Penicillin Binding Proteins and β-Lactamases of Mycobacterium tuberculosis: Reexamination of the Historical Paradigm” (mSphere, 2022)

Key:
Assay in all cases: BOCILLIN FL fluorescence inhibition, SDS-PAGE
Assay type in all cases: binding
Conditions in all cases: read-out: FIC50
PbpB (Rv2163c) = PbpB (Rv2163c) (Mycobacterium tuberculosis, UniProt L0T911)
Description: BOCILLIN FL fluorescence inhibition, SDS-PAGE on PbpB (Rv2163c)

DacB (Rv3627c) = DacB (Rv3627c) (Mycobacterium tuberculosis, UniProt O06380)
Description: BOCILLIN FL fluorescence inhibition, SDS-PAGE on DacB (Rv3627c)

Rv1730c = Rv1730c (Mycobacterium tuberculosis, UniProt P71988)
Description: BOCILLIN FL fluorescence inhibition, SDS-PAGE on Rv1730c

DacB1 (Rv3330) = DacB1 (Rv3330) (Mycobacterium tuberculosis, UniProt O53380)
Description: BOCILLIN FL fluorescence inhibition, SDS-PAGE on DacB1 (Rv3330)

PbpA (Rv0016c) = PbpA (Rv0016c) (Mycobacterium tuberculosis, UniProt P9WKD1)
Description: BOCILLIN FL fluorescence inhibition, SDS-PAGE on PbpA (Rv0016c)

PonA1 (Rv0050) = PonA1 (Rv0050) (Mycobacterium tuberculosis, UniProt P71707)
Description: BOCILLIN FL fluorescence inhibition, SDS-PAGE on PonA1 (Rv0050)

DacB2 (Rv2911) = DacB2 (Rv2911) (Mycobacterium tuberculosis, UniProt I6Y204)
Description: BOCILLIN FL fluorescence inhibition, SDS-PAGE on DacB2 (Rv2911)

PonA2 (Rv3682) = PonA2 (Rv3682) (Mycobacterium tuberculosis, UniProt I6YGX2)
Description: BOCILLIN FL fluorescence inhibition, SDS-PAGE on PonA2 (Rv3682)

DacB1 (Rv3330), sequence (O53380 33-374): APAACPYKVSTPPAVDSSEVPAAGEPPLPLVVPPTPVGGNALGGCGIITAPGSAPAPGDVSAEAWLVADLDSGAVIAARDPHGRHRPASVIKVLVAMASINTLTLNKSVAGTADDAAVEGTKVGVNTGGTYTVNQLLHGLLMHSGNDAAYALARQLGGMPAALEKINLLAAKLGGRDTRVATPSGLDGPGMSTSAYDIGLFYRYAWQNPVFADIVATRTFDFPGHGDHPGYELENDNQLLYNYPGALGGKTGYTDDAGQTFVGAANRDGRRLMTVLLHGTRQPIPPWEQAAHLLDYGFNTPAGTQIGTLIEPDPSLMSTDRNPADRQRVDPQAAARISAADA
Rv1730c, sequence (P71988 entry or part of it): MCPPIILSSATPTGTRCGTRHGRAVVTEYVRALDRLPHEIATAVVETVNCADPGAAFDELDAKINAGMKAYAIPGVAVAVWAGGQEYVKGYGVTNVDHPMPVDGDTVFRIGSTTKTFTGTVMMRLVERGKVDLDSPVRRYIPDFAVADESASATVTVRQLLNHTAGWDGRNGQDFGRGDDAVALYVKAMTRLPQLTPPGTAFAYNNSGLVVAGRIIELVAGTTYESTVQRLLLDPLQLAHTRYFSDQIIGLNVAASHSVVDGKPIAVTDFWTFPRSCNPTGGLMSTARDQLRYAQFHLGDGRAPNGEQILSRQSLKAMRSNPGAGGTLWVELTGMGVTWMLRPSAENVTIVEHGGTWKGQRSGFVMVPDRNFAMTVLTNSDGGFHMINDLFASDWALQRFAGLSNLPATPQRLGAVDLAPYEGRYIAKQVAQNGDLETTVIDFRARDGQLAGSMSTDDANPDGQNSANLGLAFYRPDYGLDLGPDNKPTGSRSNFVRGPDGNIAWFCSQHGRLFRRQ
DacB2 (Rv2911), sequence (I6Y204 23-291): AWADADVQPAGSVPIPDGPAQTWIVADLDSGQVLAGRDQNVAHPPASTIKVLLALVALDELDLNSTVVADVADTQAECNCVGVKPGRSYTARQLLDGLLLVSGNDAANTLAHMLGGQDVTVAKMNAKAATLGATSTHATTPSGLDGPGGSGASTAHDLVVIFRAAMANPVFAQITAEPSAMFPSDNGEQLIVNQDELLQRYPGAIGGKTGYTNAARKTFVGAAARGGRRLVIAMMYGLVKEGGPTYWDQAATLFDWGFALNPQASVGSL
PbpB (Rv2163c), sequence (L0T911 112-679): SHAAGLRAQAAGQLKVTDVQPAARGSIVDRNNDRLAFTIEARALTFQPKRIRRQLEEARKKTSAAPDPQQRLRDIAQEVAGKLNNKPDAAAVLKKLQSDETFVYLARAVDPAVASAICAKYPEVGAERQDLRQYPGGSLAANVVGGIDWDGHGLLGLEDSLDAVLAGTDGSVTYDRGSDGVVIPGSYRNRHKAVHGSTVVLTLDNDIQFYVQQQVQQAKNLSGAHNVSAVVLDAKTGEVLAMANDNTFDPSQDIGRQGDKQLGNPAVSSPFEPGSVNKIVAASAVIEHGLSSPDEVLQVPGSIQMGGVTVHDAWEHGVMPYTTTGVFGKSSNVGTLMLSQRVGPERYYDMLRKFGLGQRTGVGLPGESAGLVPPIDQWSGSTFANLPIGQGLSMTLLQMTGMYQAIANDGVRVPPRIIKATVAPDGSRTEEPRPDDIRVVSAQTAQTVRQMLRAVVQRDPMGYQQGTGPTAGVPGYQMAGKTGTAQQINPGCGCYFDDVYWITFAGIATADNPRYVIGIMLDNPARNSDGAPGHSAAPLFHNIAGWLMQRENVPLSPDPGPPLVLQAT
PonA1 (Rv0050), sequence (P71707 160-820): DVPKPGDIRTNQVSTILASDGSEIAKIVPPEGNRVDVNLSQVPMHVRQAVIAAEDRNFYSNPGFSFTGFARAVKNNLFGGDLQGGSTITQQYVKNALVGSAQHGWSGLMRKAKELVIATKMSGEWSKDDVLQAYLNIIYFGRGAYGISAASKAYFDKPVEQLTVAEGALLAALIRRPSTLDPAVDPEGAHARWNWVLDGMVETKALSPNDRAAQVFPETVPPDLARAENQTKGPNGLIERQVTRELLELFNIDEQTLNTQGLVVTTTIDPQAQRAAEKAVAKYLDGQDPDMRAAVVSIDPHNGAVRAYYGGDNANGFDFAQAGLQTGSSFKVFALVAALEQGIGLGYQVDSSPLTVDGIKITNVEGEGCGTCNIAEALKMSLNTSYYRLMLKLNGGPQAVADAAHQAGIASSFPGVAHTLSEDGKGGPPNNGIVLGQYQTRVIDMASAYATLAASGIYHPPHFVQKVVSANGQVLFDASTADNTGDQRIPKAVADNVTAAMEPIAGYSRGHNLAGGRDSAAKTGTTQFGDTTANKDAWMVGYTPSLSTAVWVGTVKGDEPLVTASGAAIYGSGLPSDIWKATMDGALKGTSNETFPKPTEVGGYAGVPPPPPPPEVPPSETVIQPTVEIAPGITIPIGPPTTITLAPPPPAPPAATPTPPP
PbpA (Rv0016c), sequence (P9WKD1 29-491): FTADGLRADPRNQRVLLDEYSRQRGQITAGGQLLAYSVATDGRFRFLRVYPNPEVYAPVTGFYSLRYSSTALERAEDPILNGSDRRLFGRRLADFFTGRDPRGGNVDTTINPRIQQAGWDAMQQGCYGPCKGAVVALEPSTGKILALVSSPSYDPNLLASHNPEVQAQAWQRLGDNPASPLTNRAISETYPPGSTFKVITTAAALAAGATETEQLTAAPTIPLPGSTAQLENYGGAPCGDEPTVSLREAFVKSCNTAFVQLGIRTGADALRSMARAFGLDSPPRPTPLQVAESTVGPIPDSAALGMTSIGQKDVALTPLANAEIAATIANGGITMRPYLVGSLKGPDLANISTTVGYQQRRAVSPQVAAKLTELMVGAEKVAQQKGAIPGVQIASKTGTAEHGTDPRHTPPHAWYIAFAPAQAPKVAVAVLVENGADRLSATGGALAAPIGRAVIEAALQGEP
DacB (Rv3627c), sequence (O06380 35-461): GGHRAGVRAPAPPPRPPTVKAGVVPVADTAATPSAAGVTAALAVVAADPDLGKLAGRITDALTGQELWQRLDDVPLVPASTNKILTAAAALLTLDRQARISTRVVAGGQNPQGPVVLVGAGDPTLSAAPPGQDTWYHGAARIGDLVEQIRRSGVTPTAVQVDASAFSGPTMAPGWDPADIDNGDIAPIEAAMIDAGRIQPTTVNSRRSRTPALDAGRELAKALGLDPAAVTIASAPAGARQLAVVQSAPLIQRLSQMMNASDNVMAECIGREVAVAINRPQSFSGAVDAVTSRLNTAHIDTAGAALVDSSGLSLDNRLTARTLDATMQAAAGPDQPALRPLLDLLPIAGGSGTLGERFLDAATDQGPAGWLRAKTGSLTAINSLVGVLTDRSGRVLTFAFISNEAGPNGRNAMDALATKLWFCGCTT
PonA2 (Rv3682), sequence (I6YGX2 entry or part of it): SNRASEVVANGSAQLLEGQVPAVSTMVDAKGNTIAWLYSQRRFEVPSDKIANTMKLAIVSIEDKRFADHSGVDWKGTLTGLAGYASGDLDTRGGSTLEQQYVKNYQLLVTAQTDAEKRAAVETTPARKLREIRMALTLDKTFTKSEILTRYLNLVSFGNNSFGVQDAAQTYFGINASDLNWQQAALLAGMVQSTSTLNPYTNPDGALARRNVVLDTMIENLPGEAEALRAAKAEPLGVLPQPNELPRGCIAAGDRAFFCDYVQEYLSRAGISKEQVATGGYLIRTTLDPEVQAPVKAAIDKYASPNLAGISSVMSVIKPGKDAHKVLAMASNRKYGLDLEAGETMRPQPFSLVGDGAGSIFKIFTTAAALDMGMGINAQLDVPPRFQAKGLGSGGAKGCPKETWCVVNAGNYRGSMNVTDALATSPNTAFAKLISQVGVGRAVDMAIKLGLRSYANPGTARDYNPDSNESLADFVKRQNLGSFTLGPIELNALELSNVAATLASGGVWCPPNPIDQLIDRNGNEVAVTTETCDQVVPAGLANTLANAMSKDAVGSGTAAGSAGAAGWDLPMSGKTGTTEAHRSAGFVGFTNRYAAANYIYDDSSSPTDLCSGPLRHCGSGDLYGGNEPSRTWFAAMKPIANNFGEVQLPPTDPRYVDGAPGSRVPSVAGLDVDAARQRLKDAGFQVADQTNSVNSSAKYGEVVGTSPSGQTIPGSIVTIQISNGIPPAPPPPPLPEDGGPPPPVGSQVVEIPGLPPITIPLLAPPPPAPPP

CC1(C)S[C@@H]2[C@H](NC(=O)[C@H](N)c3ccccc3)C(=O)N2[C@H]1C(=O)O [Ampicillin]
IC50 (PbpB (Rv2163c)): 1.5 ± 0.4 µM

C[C@@H](O)[C@H]1C(=O)N2C(C(=O)[O-])=C(SC3Cn4cnc[n+]4C3)[C@H](C)[C@H]12 (some centres unmarked) [Biapenem]
IC50 (DacB (Rv3627c)): 3.5 ± 0.2 µM
IC50 (Rv1730c): 569 ± 72.1 µM
IC50 (DacB1 (Rv3330)): 18.1 ± 3 µM

C=CC1=C(C(=O)O)N2C(=O)[C@@H](NC(=O)/C(=N\O)c3csc(N)n3)[C@H]2SC1 [Cefdinir]
IC50 (PbpA (Rv0016c)): 13.8 ± 6.9 µM

CO[C@@]1(NC(=O)Cc2cccs2)C(=O)N2C(C(=O)O)=C(COC(N)=O)CS[C@@H]21 [Cefoxitin]
IC50 (PonA1 (Rv0050)): 25.1 ± 2.5 µM
IC50 (DacB1 (Rv3330)): 15.6 ± 1.2 µM
IC50 (DacB2 (Rv2911)): 8.1 ± 2.4 µM

C[C@@H](O)[C@H]1C(=O)N2C(C(=O)O)=C([C@H]3CCCO3)S[C@H]12 [Faropenem]
IC50 (Rv1730c): 89.8 ± 12.3 µM
IC50 (PonA1 (Rv0050)): 27.9 ± 3.5 µM

C[C@@H](O)[C@H]1C(=O)N2C(C(=O)O)=C(SCCN=CN)C[C@H]12 [Imipenem]
IC50 (PonA2 (Rv3682)): 3 ± 0.6 µM
IC50 (DacB1 (Rv3330)): 4.5 ± 1.4 µM
IC50 (DacB2 (Rv2911)): 11.1 ± 3.2 µM

C[C@@H](O)[C@H]1C(=O)N2C(C(=O)O)=C(S[C@@H]3CN[C@H](C(=O)N(C)C)C3)[C@H](C)[C@H]12 [Meropenem]
IC50 (DacB (Rv3627c)): 1.5 ± 0.2 µM
IC50 (Rv1730c): 838 ± 103 µM
IC50 (PbpB (Rv2163c)): 4.1 ± 0.2 µM

COc1cccc(OC)c1C(=O)N[C@@H]1C(=O)N2[C@@H]1SC(C)(C)[C@@H]2C(=O)O [Methicillin]
IC50 (PbpA (Rv0016c)): 11.6 ± 2.6 µM
